Consider eleven molecules from PubChem BioAssay AID256 (DTP/NCI, 2004).

The subject of the assay is CD2F1 mice, L1210 leukemia ip, survival T/C. In words: NCI In Vivo Anticancer Drug Screen. Data for tumor model L1210 Leukemia (intraperitoneal) in CD2F1 (CDF1) mice. The settings on record: higher = longer survival. In a few lines:
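Implant tumor; dose compound or vehicle; measure endpoint in both groups; report treated divided by control.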

[1] abbreviates: endpoint: mean survival time, dose: 100.0 mg/kg/injection, schedule: Q01DX009 (ip), vehicle: saline with Tween-80.
Where [2] appears, read: endpoint: mean survival time, dose: 100.0 mg/kg/injection, schedule: Q04DX003 (ip), vehicle: saline with Tween-80.
The mark [3] stands for this setting: endpoint: mean survival time, dose: 200.0 mg/kg/injection, schedule: Q04DX003 (ip), vehicle: saline with Tween-80.
[4] abbreviates: endpoint: mean survival time, dose: 400.0 mg/kg/injection, schedule: Q04DX003 (ip), vehicle: saline with Tween-80.

Several values for one entry are separate records, joined by “and”; a condition that tells them apart may be missing. Equal values may be shown once. Inconclusive results and toxic doses are left out.

For the molecule `N#CCCc1ccccc1`, the T/C is 97 % of control (endpoint: mean survival time, dose: 3.13 mg/kg/injection, schedule: Q01DX009 (ip), vehicle: saline with Tween-80); 92 % of control (endpoint: mean survival time, dose: 3.13 mg/kg/injection, schedule: Q04DX003 (ip), vehicle: saline); 94 % of control (endpoint: mean survival time, dose: 6.25 mg/kg/injection, schedule: Q01DX009 (ip), vehicle: saline with Tween-80); 89 % of control (endpoint: mean survival time, dose: 6.25 mg/kg/injection, schedule: Q04DX003 (ip), vehicle: saline); 94 % of control (endpoint: mean survival time, dose: 12.5 mg/kg/injection, schedule: Q01DX009 (ip), vehicle: saline with Tween-80); 106 % of control (endpoint: mean survival time, dose: 12.5 mg/kg/injection, schedule: Q04DX003 (ip), vehicle: saline with Tween-80). Also, the T/C (endpoint: mean survival time, dose: 12.5 mg/kg/injection, schedule: Q04DX003 (ip), vehicle: saline) is 92 % of control; the T/C (endpoint: mean survival time, dose: 25.0 mg/kg/injection, schedule: Q04DX003 (ip), vehicle: saline with Tween-80) is 123 % of control; the T/C (endpoint: mean survival time, dose: 50.0 mg/kg/injection, schedule: Q04DX003 (ip), vehicle: saline with Tween-80) is 92 % of control.

As for `C(=N\Nc1nn[nH]n1)/c1ccccc1`, the T/C reads like this: (endpoint: mean survival time, dose: 25.0 mg/kg/injection, schedule: Q01DX009 (ip), vehicle: saline with Tween-80) 105 % of control; (endpoint: mean survival time, dose: 50.0 mg/kg/injection, schedule: Q01DX009 (ip), vehicle: saline with Tween-80) 97 % of control; under setting [1], 108 % of control.

Take `Nc1ccn(C2OC(COP(=O)(O)O)C(O)C2O)c(=O)n1` (stereo not given): the T/C is 337 % of control (endpoint: mean survival time, dose: 4.0 mg/kg/injection, schedule: Q03HX024 (ip), vehicle: saline); 176 % of control (endpoint: mean survival time, dose: 8.0 mg/kg/injection, schedule: Q01DX008 (ip), vehicle: saline); 302 % of control (endpoint: mean survival time, dose: 8.0 mg/kg/injection, schedule: Q03HX024 (ip), vehicle: saline); 183 % of control (endpoint: mean survival time, dose: 16.0 mg/kg/injection, schedule: Q01DX008 (ip), vehicle: saline); 185 % of control (endpoint: mean survival time, dose: 16.0 mg/kg/injection, schedule: Q01DX009 (ip), vehicle: saline); 487 % of control (endpoint: mean survival time, dose: 16.0 mg/kg/injection, schedule: Q03HX024 (ip), vehicle: saline). Further, the T/C (endpoint: mean survival time, dose: 16.0 mg/kg/injection, schedule: Q03HX024 (oral), vehicle: saline) is 228 % of control; the T/C (endpoint: mean survival time, dose: 32.0 mg/kg/injection, schedule: Q01DX008 (ip), vehicle: saline) was 173 % of control; the T/C (endpoint: mean survival time, dose: 32.0 mg/kg/injection, schedule: Q01DX009 (ip), vehicle: saline) was 215 % of control; the T/C (endpoint: mean survival time, dose: 32.0 mg/kg/injection, schedule: Q03HX024 (ip), vehicle: saline) was 240 % of control; the T/C (endpoint: mean survival time, dose: 32.0 mg/kg/injection, schedule: Q03HX024 (oral), vehicle: saline) is 266 % of control; the T/C (endpoint: mean survival time, dose: 64.0 mg/kg/injection, schedule: Q01DX001 (ip), vehicle: saline) was 121 % of control. Moreover, the T/C was 155 % of control (endpoint: mean survival time, dose: 64.0 mg/kg/injection, schedule: Q01DX008 (ip), vehicle: saline); 156 % of control (endpoint: mean survival time, dose: 64.0 mg/kg/injection, schedule: Q01DX008 (oral), vehicle: saline); 212 % of control (endpoint: mean survival time, dose: 64.0 mg/kg/injection, schedule: Q01DX009 (ip), vehicle: saline); 300 % of control (endpoint: mean survival time, dose: 64.0 mg/kg/injection, schedule: Q03HX024 (oral), vehicle: saline); 117 % of control (endpoint: mean survival time, dose: 128.0 mg/kg/injection, schedule: Q01DX001 (ip), vehicle: saline); 106 % of control (endpoint: mean survival time, dose: 128.0 mg/kg/injection, schedule: Q01DX001 (oral), vehicle: saline). For the same molecule, the T/C was 167 % of control (endpoint: mean survival time, dose: 128.0 mg/kg/injection, schedule: Q01DX008 (oral), vehicle: saline); 155 % of control (endpoint: mean survival time, dose: 128.0 mg/kg/injection, schedule: Q01DX009 (oral), vehicle: saline); 155 % of control (endpoint: mean survival time, dose: 128.0 mg/kg/injection, schedule: Q03HX024 (oral), vehicle: saline); 120 % of control (endpoint: mean survival time, dose: 128.0 mg/kg/injection, schedule: Q04DX003 (oral), vehicle: saline); 112 % of control (endpoint: mean survival time, dose: 256.0 mg/kg/injection, schedule: Q01DX001 (ip), vehicle: saline); 107 % of control (endpoint: mean survival time, dose: 256.0 mg/kg/injection, schedule: Q01DX001 (oral), vehicle: saline). Moreover, the T/C reads like this: (endpoint: mean survival time, dose: 256.0 mg/kg/injection, schedule: Q01DX009 (oral), vehicle: saline) 172 % of control; (endpoint: mean survival time, dose: 256.0 mg/kg/injection, schedule: Q04DX003 (oral), vehicle: saline) 121 % of control; (endpoint: mean survival time, dose: 512.0 mg/kg/injection, schedule: Q01DX001 (oral), vehicle: saline) 109 % of control; (endpoint: mean survival time, dose: 512.0 mg/kg/injection, schedule: Q01DX009 (oral), vehicle: saline) 182 % of control; (endpoint: mean survival time, dose: 1024.0 mg/kg/injection, schedule: Q01DX001 (oral), vehicle: saline) 155 % of control; (endpoint: mean survival time, dose: 1024.0 mg/kg/injection, schedule: Q01DX009 (oral), vehicle: saline) 104 % of control. For the same molecule, for the setting “endpoint: mean survival time, dose: 1024.0 mg/kg/injection, schedule: Q04DX003 (oral), vehicle: saline”, the T/C was 164 % of control.

For `O=NNc1ccccn1`, the T/C was 114 % of control (endpoint: mean survival time, dose: 8.0 mg/kg/injection, schedule: Q04DX003 (ip), vehicle: saline); 104 % of control (endpoint: median survival time, dose: 0.78 mg/kg/injection, schedule: Q01DX009 (ip), vehicle: saline); 107 % of control (endpoint: median survival time, dose: 1.56 mg/kg/injection, schedule: Q01DX005 (ip), vehicle: saline); 106 % of control (endpoint: median survival time, dose: 1.56 mg/kg/injection, schedule: Q01DX009 (ip), vehicle: saline); 117 % of control and 110 % of control (endpoint: median survival time, dose: 3.12 mg/kg/injection, schedule: Q01DX005 (ip), vehicle: saline); 110 % of control (endpoint: median survival time, dose: 3.12 mg/kg/injection, schedule: Q01DX009 (ip), vehicle: saline). Further, the T/C (endpoint: median survival time, dose: 3.13 mg/kg/injection, schedule: Q01DX005 (ip), vehicle: saline) is 122 % of control; the T/C (endpoint: median survival time, dose: 6.25 mg/kg/injection, schedule: Q01DX005 (ip), vehicle: saline) is 117 % of control; the T/C (endpoint: median survival time, dose: 6.25 mg/kg/injection, schedule: Q01DX009 (ip), vehicle: saline) was 119 % of control; the T/C (endpoint: median survival time, dose: 12.5 mg/kg/injection, schedule: Q01DX005 (ip), vehicle: saline) was 160 % of control; the T/C (endpoint: median survival time, dose: 25.0 mg/kg/injection, schedule: Q01DX005 (ip), vehicle: saline) is 184 % of control and 187 % of control; the T/C (endpoint: median survival time, dose: 50.0 mg/kg/injection, schedule: Q01DX005 (ip), vehicle: saline) is 96 % of control and 103 % of control.

With `NCC(=O)Nc1ccccc1`, the T/C reads like this: (endpoint: mean survival time, dose: 100.0 mg/kg/injection, schedule: Q01DX009 (ip), vehicle: saline) 103 % of control; (endpoint: mean survival time, dose: 200.0 mg/kg/injection, schedule: Q01DX009 (ip), vehicle: saline) 113 % of control; (endpoint: mean survival time, dose: 400.0 mg/kg/injection, schedule: Q01DX009 (ip), vehicle: saline) 97 % of control.

Consider `CN(C)CCCNC1CCC(NCCCN(C)C)CC1` (stereo not given), for which the T/C is 96 % of control (endpoint: mean survival time, dose: 25.0 mg/kg/injection, schedule: Q01DX009 (ip), vehicle: saline) and 98 % of control (endpoint: mean survival time, dose: 100.0 mg/kg/injection, schedule: Q04DX003 (ip), vehicle: saline).

Consider `O=C1/C(=C/c2ccc(Cl)cc2Cl)CCC/C1=C\c1ccc(Cl)cc1Cl`, for which the T/C under setting [1] is 87 % of control.

Take `O=C([O][Sb]([O]C(=O)C(Cl)(Cl)Cl)([c]1ccccc1)([c]1ccccc1)[c]1ccccc1)C(Cl)(Cl)Cl`: the T/C is, setting by setting: under setting [2], 100 % of control; under setting [3], 93 % of control; under setting [4], 93 % of control.

Regarding `C1CCC2C[N-]CCC2C1.C1CCC2C[N-]CCC2C1.C1CCC2C[N-]CCC2C1.C1CCC2C[N-]CCC2C1.[I][Fe][I]` (stereo not given), the T/C is 108 % of control under setting [2] and 106 % of control under setting [3].

As to `Cc1ccccc1NC(=O)c1cc2ccccc2cc1O`, the T/C under setting [1] was 91 % of control; the T/C under setting [2] was 102 % of control; the T/C (endpoint: mean survival time, dose: 200.0 mg/kg/injection, schedule: Q01DX009 (ip), vehicle: saline with Tween-80) was 94 % of control; the T/C under setting [3] is 89 % of control; the T/C (endpoint: mean survival time, dose: 400.0 mg/kg/injection, schedule: Q01DX009 (ip), vehicle: saline with Tween-80) was 94 % of control; the T/C under setting [4] is 91 % of control.

For `O=C(COc1ccccc1)NCc1ccc([N+](=O)[O-])cc1`, the T/C (endpoint: mean survival time, dose: 50.0 mg/kg/injection, schedule: Q01DX001 (ip), vehicle: saline with Tween-80) was 96 % of control; the T/C (endpoint: mean survival time, dose: 100.0 mg/kg/injection, schedule: Q01DX001 (ip), vehicle: saline with Tween-80) was 96 % of control; the T/C (endpoint: mean survival time, dose: 200.0 mg/kg/injection, schedule: Q01DX001 (ip), vehicle: saline with Tween-80) was 91 % of control.
